Consider 4 compounds from patent publication US10149470B2, “Methods and compositions for vein harvest and autografting” (Vanderbilt University, priority 2009, dated 2018).

Holding throughout (type): cell-based
The subject of series [1] is human saphenous vein. To be noted: 15 min, pH 7.4. The method, then:
De-identified discarded segments of human saphenous vein were collected (n=66), after informed consent approved by the Institutional Review Board of the Vanderbilt University (Nashville, Tenn.), from patients undergoing coronary artery bypass or peripheral vascular bypass surgery. The veins were stored in a saline solution until the end of the surgical procedure at which time they were placed in cold transplant harvest buffer (100 mM potassium lactobionate, 25 mM KH2PO4, 5 mM MgSO4, 30 mM raffinose, 5 mM adenosine, 3 mM glutathione, 1 mM allopurinol, 50 g/L hydroxyethyl starch, pH 7.4) and stored at 4° C. The vessels were tested within 24 hours of harvest. The presense of blue markings were assessed for each HSV. Rings 1.0 mm in width were cut from segments of saphenous vein dissected free of fat and connective tissue, stripped of the endothelium and were suspended in a muscle bath containing a bicarbonate buffer (120 mM NaCl, 4.7 mM KCl, 1.0 mM MgSO4, 1.0 mM NaH2PO4, 10 mM glucose, 1.5 mM CaCl2, and 25 mM […], pH 7.4), gassed with 95% O2/5% CO2 at 37° C. The rings were manually stretched to 4 g of tension, and was maintained at a resting tension of 1 g was obtained and equilibrated for ˜2 hr. […] To determine viability, the rings were contracted with 110 mM KCl (with equimolar replacement of NaCl in bicarbonate buffer), and the force generated was measured. […]

The test system of a further series is porcine saphenous veins. To be noted: pig, 15 min, 50 %. The protocol:
Freshly isolated porcine saphenous veins were used to test the effect of different marking methods. The veins were collected and placed in cold transplant harvest buffer [100 mM potassium lactobionate, 25 mM KH2PO4, 5 mM MgSO4, 30 mM raffinose, 5 mM adenosine, 3 mM glutathione, 1 mM allopurinol, 50 g/L hydroxyethyl starch, pH 7.4]. The vessels were stored in transplant harvest buffer at 4° C. and tested within 24 hours of harvest and. To test the viability, rings 1.0 mm in width were cut from segments of saphenous vein and dissected free of fat and connective tissue. Saphenous vein rings were untreated (Control; n=6), marked with the surgical skin marker (n=3), or 50% isopropyl alcohol (the solvent used in the surgical marker; n=3) and incubated for 15 min at room temperature. The rings were then equilibrated in a muscle bath, contracted with KCl, and force was measured and converted to stress (10^5 N/m^2). […] (FIG. 7).

Series [2] concerns porcine saphenous vein. As to the kind of experiment: KCl-induced contraction of porcine saphenous vein after stretch injury, with or without dye. To be noted: 50 μM dye for 30 min on rings from stretched segments; FIG. 10. The protocol: Freshly isolated porcine saphenous vein was collected in cold transplant harvest buffer (100 mM potassium lactobionate, 25 mM KH2PO4, 5 mM MgSO4, 30 mM raffinose, 5 mM adenosine, 3 mM glutathione, 1 mM allopurinol, 50 g/L hydroxyethyl starch, pH 7.4). The vessels were tested within 24 hours of harvest and storage in transplant harvest buffer at 4° C. The vein was dissected free of fat and connective tissue and cut into 2 cm long segments. The segments were stretched to twice their resting length (stretched; n=7) or not manipulated (control; n=12). After stretching, the segments from both groups were further divided. A solution of erioglaucine (FCF, 2.6 mM, in 5% propylene glycol and water) or vehicle was then applied with a cotton swab in a longitudinal line to the untreated (FCF; n=8) or the stretched (Stretched+FCF; n=3) vein segments. The segments were incubated at room temperature for 15 min in Plasmalyte and then cut into rings. The rings were suspended in a muscle bath containing a bicarbonate buffer (120 mM NaCl, 4.7 mM KCl, 1.0 mM MgSO4, 1.0 mM NaH2PO4, 10 mM glucose, 1.5 mM CaCl2, and 25 mM […], pH 7.4), bubbled with 95% O2/5% CO2 at 37° C. The rings were manually stretched to 4 g of tension, and maintained at a resting tension of 1 g and equilibrated for ˜2 hr.
Rings from stretched segments were either incubated with 50 μM Allura Red (+Red) or 50 μM of erioglaucine (+FCF) for 30 min. The rings were then allowed to equilibrate in the bicarbonate buffer for before contracting with 110 mM KCl. Force generated was converted to stress (10^5 N/m^2). Data represent relative contractile response to Control rings which was set as 100%.

Series [3] relates to porcine saphenous vein. As to the kind of experiment: Intimal thickening of distended porcine saphenous vein rings in 14 day organ culture. As to conditions: 50 μM dye, 14 days culture, distended to >300 mm Hg, compared to Distended-Control; FIG. 14. The method, then: Fresh porcine saphenous vein was harvested by a no touch method under sterile conditions and stored in cold transplant harvest buffer (100 mM potassium lactobionate, 25 mM KH2PO4, 5 mM MgSO4, 30 mM Raffinose, 5 mM Adenosine, 3 mM Glutathione, 1 mM Allopurinol, 50 g/L Hydroxyethyl starch, pH 7.4). The vessels were used within 24 hr of harvest. The veins were divided into three segments that were left untreated (Unmanipulated, n=7), distended (Distended, n=8) to >300 mm Hg, or distended in the presence of the pressure relief valve (Pop Off, n=7). Each segment was then cut into ˜1 mm rings and one ring from each condition was immediately fixed in formalin (Pre-culture). The other rings were cultured in RPMI medium supplemented with 1% L-glutamine, penicillin/streptomycin and 30% Fetal bovine serum at 5% CO2 and 37° C. in the absence (Control) or presence of either 50 μM erioglaucine (FCF), 50 μM brilliant blue G (BBG) or 50 μM Allura Red (Red) for 14 days. After 14 days, the rings were fixed in formalin, sectioned at 5 μm and stained using Verhoff Van Gieson stain. Light micrograph of the rings was captured using a Axiovert 200 and intimal thickness was measured using AxioVision.

In the next series the test system is porcine coronary artery. As to the kind of experiment: Papaverine effect on tension and on histamine/KCl contraction of porcine coronary artery rings. The method, then:
Porcine coronary arteries were freshly isolated from euthanized pigs and placed directly into cold transplant harvest buffer (100 mM potassium lactobionate, 25 mM KH2PO4, 5 mM MgSO4, 30 mM Raffinose, 5 mM Adenosine, 3 mM Glutathione, 1 mM Allopurinol, 50 g/L Hydroxyethyl starch, pH 7.4). Coronary arteries were dissected free of fat and adventitial tissues and the endothelium was removed. Transverse rings (1.0 mm thickness) were cut and suspended in muscle bath, via silk 3-0 linked to force transducers (Kent Scientific, CT) interfaced with a Data Translation A-D board (Data Translation, MA). Data was acquired with the Power Lab software program. Porcine coronary artery rings were suspended in a muscle bath and equilibrated in Krebs Ringer bicarbonate buffer for 2 h. The rings were stretched and the length progressively adjusted until maximal tension was obtained. The rings were contracted with 110 mM KCl (with equimolar replacement of NaCl in bicarbonate buffer), and the force generated was measured and converted to stress [Newtons (N)/m^2]=force (g)×0.0987/area, where area is equal to the wet weight [mg/length (mm at maximal length)] divided by 1.055. Rings were washed and equilibrated for another 30 mins. Rings were treated with 5 μM histamine, 110 mM KCl, 1 mM papaverine (PAP), 1 mM papaverine for 10 min followed by 5 μM histamine or 1 mM papaverine for 10 min followed by 110 mM KCl and force generated was measured- and converted to stress. Representative force tracings of rings treated with 5 μM histamine (Hist), 110 mM KCl (KCl), 1 mM papaverine (PAP), 1 mM papaverine for 10 min followed by 5 μM histamine (Pap+Hist) or 1 mM papaverine for 10 min followed by 110 mM KCl (Pap+KCl) were depicted in FIG. 18A. Decrease in stress was converted to a percentage of the maximal initial KCl contraction which was set as 100%.

In series [4] the test system is human saphenous vein. As to the kind of experiment: Papaverine effect on tension and on norepinephrine contraction of human saphenous vein rings.
Experimental: De-identified discarded segments of human saphenous vein (n=6) were collected, after informed consent approved by the Institutional Review Board of the Vanderbilt University (Nashville, Tenn.), from patients undergoing coronary artery bypass or peripheral vascular bypass surgery. The veins were stored in a saline solution until the end of the surgical procedure at which time they were placed in cold transplant harvest buffer (100 mM potassium lactobionate, 25 mM KH2PO4, 5 mM MgSO4, 30 mM raffinose, 5 mM adenosine, 3 mM glutathione, 1 mM allopurinol, 50 g/L hydroxyethyl starch, pH 7.4). The vessels were tested within 24 hrs of harvest and storage in transplant harvest buffer at 4° C. Veins were cleaned off fat and adventitial tissues and the endothelium was removed. […] The rings were contracted with 110 mM KCl (with equimolar replacement of NaCl in bicarbonate buffer), and the force generated was measured and converted to stress [Newtons (N)/m^2]==force (g)×0.0987/area, where area is equal to the wet weight [mg/length (mm at maximal length)] divided by 1.055. […] Rings were treated with 0.5 μM norepinephrine (NE), 1 mM papaverine (Pap), or 1 mM papaverine for 10 min followed by 0.5 μM NE and force generated was measured and converted to stress. […]

For `CC(C)O` [50% isopropyl alcohol, isopropyl alcohol], the “average stress, contraction with 110 mM KCl” value with human saphenous vein [1] is listed as 0.005±0.003 10^5 N/m^2. The average stress, contraction with KCl with porcine saphenous veins turned out to be 5 ± 5 N/m^2.

As to `COc1cc(S(=O)(=O)[O-])c(C)cc1N=Nc1c(O)ccc2cc(S(=O)(=O)[O-])ccc12.[Na+].[Na+]` [Allura Red], the “restoration of functional viability (contractile response to KCl) after stretch injury” value in the series on porcine saphenous vein [2] was “did not restore functional viability”. Further, the “distension induced increases in intimal thickening” value with porcine saphenous vein [3] is given as “but not allura red inhibited distension induced increases in intimal thickening”.

As for `CN(C)c1ccc2nc3ccc(=[N+](C)C)cc-3sc2c1` [methylene blue], the “average stress, contraction with 110 mM KCl” value in the series with human saphenous vein [1] is 0.014±0.01 10^5 N/m^2.

For the compound `COc1ccc(Cc2nccc3cc(OC)c(OC)cc23)cc1OC` [papaverine], the “change of basal tension, percentage of the maximal initial KCl contraction” value in the series with porcine coronary artery (1 mM papaverine) was −15.0±3.135%. The “histamine induced contraction after papaverine, percentage of the maximal initial KCl contraction” value in the series on porcine coronary artery (1 mM papaverine 10 min then 5 μM histamine, histamine alone 98.613±11.049) is on record as −12.0±4.163%. Also, in the series with porcine coronary artery (1 mM papaverine 10 min then 110 mM KCl, KCl alone 103.33±2.404), the “KCl induced contraction after papaverine, percentage of the maximal initial KCl contraction” value is reported as −20.0±10.00%. Further, the “histamine and KCl induced contractions (in words)” value with porcine coronary artery (preincubation with papaverine, FIGS. 18A-B) is “inhibits histamine and KCl induced contractions”. Also, the “norepinephrine induced contraction after papaverine, percentage of the maximal initial KCl contraction” value in the series on human saphenous vein [4] (1 mM papaverine 10 min then 0.5 μM NE, NE alone 89.935±18.344) is given as −3.210±5.119%. Also, the “norepinephrine induced contractions (in words)” value with human saphenous vein [4] (preincubation with papaverine, FIGS. 19A-B) is given as “inhibits norepinephrine induced contractions”.
